Where a name gives a salt, the structure may show the parent alone.
Tests used:
[1] = biological target: T1, Glucose oxidase (GOD) (E.C.1.1.3.4.) (Aspergillus niger, UniProt P13006); experiment: Chronoamperometry of GOD-graphite/paraffin pasta electrode containing the mediator (glucose measurement); type: biochemical; conditions: for Working potential: Ag/AgCl ref.; for SD% of 100 measurement / Signal to noice ration: at 7mM glucose; for Linearity: glucose
Description: (§1) Glucose oxidase (GOD) (E.C.1.1.3.4.) was immobilized on graphite particles by the following procedure: 10 g of graphite was oxidized in air at 100°C for 24 hours. The surface oxidized graphite particles were activated with 500 mg of 1-cyclohexyl-3-(2-morpholinoethyl)carbodiimide metho-p-toluenesulfonate in 100 ml of 0.1 M acetate buffer (pH 4.76) for 2 hours, then washed with distilled water until an approximately neutral pH value and dried. The activated graphite was mixed with 30 ml of 0.01 phosphate buffer (pH 7.3) containing 80,000 IU GOD and 4% glutaraldehyde for 16 hours at 4°C, dried and sieved through a 48 mesh to obtain uniform particles.
(§2) 1 g of paraffin oil containing 5% Methylene green (4-nitro-3,7-bis(dimethylamino)phenothiazine) was mixed carefully with 2 g of GOD modified graphite to a uniform pasta.
(§3) The pasta was filled into a plastic rod in which it was possible to cut a thin cross-sectional slice to introduce a new well-defined electrode area. Before each measurement, the electrode surface was renewed. The working electrode area used was 3 mm^2.
Chronoamperometry was preformed at 100 mV using the integrated current from 30 to 60 seconds after applying the potential. A linearity up to 40 mM glucose was obtained. The current was 500 nA/(sec*mM). The signal was not affected by the oxygen concentration in the solution. Reference pasta without Methylene green was not affected by different glucose concentrations.
(§4) Data in the table are obtained using the same procedure as in Example 1.

[2] = Redox potential of the mediator at GC electrode; type: physicochemical; conditions: Ag/AgCl ref.; in mV (unit assumed)
Text: as §4

[3] = Stability test of pasta rods with selected mediators stored at different temperatures; type: physicochemical; parameters: unit not given here
Description: The stability of a paste with a certain mediator can be determined using the following method:
The mediator is dissolved or mixed with paraffin and, thereafter, the enzyme coupled to graphite is added. The mixture is homogenized giving a paste. This paste is filled into electrode holders of plast giving so-called sticks. These sticks are tested using 0 and 10 mM glucose standards in order to characterize the activity of these sticks in relation to glucose. Thereafter, the paste containing sticks are stored at a constant temperature, for example, 4, 20, 35 and 54°C. After a certain period of time, for example 1 month, the sticks are tested using the 0 and 10 mM glucose standards and the activities measured are compared with the activity measured at originally.
Data are obtained using the same basis procedure as in Example 1. Rods with selected mediators were stored at different temperature to accelerate processes which could give new analytical performance.

[4] = biological target: T1, Glucose oxidase (GOD) (E.C.1.1.3.4.); experiment: Cyclic voltammetry of GOD-graphite/paraffin pasta electrode containing the mediator; type: biochemical; conditions: Ag/AgCl ref.
Description: • 1) A paste containing GOD-immobilized graphite, paraffin and mediator is prepared. If the mediator has a big solubility in paraffin then 10 mg of mediator is used per ml of paraffin. If the mediator has a little solubility in paraffin then 50 mg of crystals are added per ml of paraffin in order to obtain a homogeneous mixture before graphite is added. The paste obtained is filled into sticks. • 2) The activity of the paste is determined in a cyclic voltametri equipment where the current is measured as a function of the potential (CV sweep). Five concentrations of glucose are measured, i.e., 0, 5, 10, 15 and 20 mM. Based upon the results obtained, the following is evaluated: • a) whether the mediator can be oxidized and reduced by the graphite electrode, • b) whether the mediator can be reduced of GOD, • c) the optimal potential for the electorde to be used, • d) whether a lineary response as a function of the concentration of glucose can be obtained using the concentration of mediator in question, • e) whether the concentration of the mediator can be optimized. • 3) The response as a function of time at the optimal potential is to be measured. The time interval within which the response represents a stable response for the concentration of glucose is to be evaluated. • 4) The stability of the mediator in the paste question is determined.
as §1, §2, §3
In the study of the working electrode, an Ag auxiliary electrode and an Ag/AgCl reference electrode was used. In a cyclic voltammogram, a catalytic current from the reoxidation of the mediator was observed beginning at -50 mV and being stable between 50 and 400 mV. The current was proportional to the concentration of glucose used.
as §4

T1 sequence (P13006 17-605, species assumed): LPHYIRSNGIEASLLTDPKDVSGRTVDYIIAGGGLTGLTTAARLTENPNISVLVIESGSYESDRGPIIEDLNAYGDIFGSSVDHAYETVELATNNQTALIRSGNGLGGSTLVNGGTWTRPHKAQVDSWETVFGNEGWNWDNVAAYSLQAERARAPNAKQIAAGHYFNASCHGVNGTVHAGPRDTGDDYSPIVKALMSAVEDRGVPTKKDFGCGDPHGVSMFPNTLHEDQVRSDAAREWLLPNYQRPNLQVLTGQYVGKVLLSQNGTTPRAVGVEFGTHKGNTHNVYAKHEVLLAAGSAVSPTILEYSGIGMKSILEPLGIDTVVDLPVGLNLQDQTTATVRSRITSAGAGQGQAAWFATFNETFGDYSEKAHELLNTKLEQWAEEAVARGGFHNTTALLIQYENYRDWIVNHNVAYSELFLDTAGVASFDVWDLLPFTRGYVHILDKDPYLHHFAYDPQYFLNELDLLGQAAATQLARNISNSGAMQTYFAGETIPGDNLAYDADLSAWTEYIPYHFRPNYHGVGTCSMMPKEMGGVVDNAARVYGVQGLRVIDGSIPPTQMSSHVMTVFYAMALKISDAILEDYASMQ

Row | SMILES | Working potential [1] | SD% of 100 measurement [1] | Signal to noice ration [1] | Linearity [1] | Redoxpotential at GCElectrode [2] | activity of rod in stability test ([3]; 4°C, listed as a, Time 0) | activity of rod in stability test ([3]; 4°C, listed as a, Time 72) | activity of rod in stability test ([3]; 4°C, listed as b, Time 0) | activity of rod in stability test ([3]; 4°C, listed as b, Time 72) | activity of rod in stability test ([3]; 20°C, listed as a, Time 0) | activity of rod in stability test ([3]; 20°C, listed as a, Time 72) | activity of rod in stability test ([3]; 20°C, listed as b, Time 0) | activity of rod in stability test ([3]; 20°C, listed as b, Time 72) | activity of rod in stability test ([3]; 35°C, listed as a, Time 0) | activity of rod in stability test ([3]; 35°C, listed as a, Time 72) | activity of rod in stability test ([3]; 35°C, listed as b, Time 0) | activity of rod in stability test ([3]; 35°C, listed as b, Time 72) | activity of rod in stability test ([3]; 54°C, listed as a, Time 0) | activity of rod in stability test ([3]; 54°C, listed as b, Time 0) | Catalytic interval beginning at [4] | further results
1 | c1cc(N2CCOCC2)ccc1N1CCOCC1 [BMP, 1,4-dimorpholinobenzene] | 200 | 6.5% | 5.6 | 20 mM | 246 | 20.2 | 21.2 | 21.3 | 19.3 | 18.5 | 21.4 | 20.5 | 23.3 | 20.0 | 18.0 | 16.7 | 20.3 | 18.4 | 20.5 | 50 mV | activity of rod in stability test ([3]; 54°C, listed as a, Time 72): 15.0; activity of rod in stability test ([3]; 54°C, listed as b, Time 72): 14.6
2 | c1cc(N2CCCCC2)ccc1N1CCCCC1 [BPP, 1,4-dipiperidinobenzene] | 150 | 3.5% | 4.7 | 20 mM | 141 | 12.3 | – | 11.1 | – | 10.0 | – | 10.5 | – | 9.1 | – | 10.6 | – | 11.1 | 10.3 | 0 mV | activity of rod in stability test ([3]; 4°C, listed as a, Time 78): 12.4; activity of rod in stability test ([3]; 4°C, listed as b, Time 78): 13.7; activity of rod in stability test ([3]; 20°C, listed as a, Time 78): 11.0; activity of rod in stability test ([3]; 20°C, listed as b, Time 78): 11.1; activity of rod in stability test ([3]; 35°C, listed as a, Time 78): 8.7; activity of rod in stability test ([3]; 35°C, listed as b, Time 78): 10.4; activity of rod in stability test ([3]; 54°C, listed as a, Time 78): 6.7; activity of rod in stability test ([3]; 54°C, listed as b, Time 78): 5.6
3 | C[N+](C)=c1ccc2nc3c(ccc4ccccc43)oc-2c1 [MB, 7-dimethylamino-1,2-benzophenoxazinium salts] | 100 | 6.5% | 4.8 | 40 mM | -175 | – | – | – | – | – | – | – | – | – | – | – | – | – | – | -50 mV | –
4 | c1cc(N2CCOCC2)ccc1N1CCCCC1 [MPP, 1-morpholino-4-piperidinobenzene] | 100 | 4.0% | 10 | 20 mM | 166 | 11.7 | – | 9.2 | – | 10.0 | – | 7.2 | – | 7.0 | – | 9.0 | – | 12.5 | 11.3 | 20 mV | activity of rod in stability test ([3]; 4°C, listed as a, Time 70): 8.8; activity of rod in stability test ([3]; 4°C, listed as b, Time 70): 10.5; activity of rod in stability test ([3]; 20°C, listed as a, Time 70): 11.9; activity of rod in stability test ([3]; 20°C, listed as b, Time 70): 9.3; activity of rod in stability test ([3]; 35°C, listed as a, Time 70): 9.0; activity of rod in stability test ([3]; 35°C, listed as b, Time 70): 9.5; activity of rod in stability test ([3]; 54°C, listed as a, Time 70): 4.1; activity of rod in stability test ([3]; 54°C, listed as b, Time 70): 4.7
5 | CN(C)c1ccc(N2CCOCC2)cc1 [MDMP, 1-dimethylamino-4-morpholinobenzene] | 100 | 4.5% | 8.3 | 20 mM | 124 | 17.2 | 16.9 | 16.2 | 18.1 | 16.4 | 17.4 | 16.0 | 15.4 | 15.4 | 15.7 | 13.4 | 14.5 | 17.4 | 14.4 | -20 mV | activity of rod in stability test ([3]; 54°C, listed as a, Time 72): 6.9; activity of rod in stability test ([3]; 54°C, listed as b, Time 72): 8.5

Reference: EP0552223B1, “USE OF BENZENE DERIVATIVES AS CHARGE TRANSFER MEDIATORS” (NOVO NORDISK A/S, priority 1990, dated 1992)
